Assay results published in patent publication US20130273057A1, “METHODS AND COMPOSITIONS FOR THE TREATMENT AND DIAGNOSIS OF VASCULAR INFLAMMATORY DISORDERS OR ENDOTHELIAL CELL DISORDERS” (Beth Israel Deaconess Medical Center, Inc., priority 2007, published 2013).
One block for each molecule: values may come before it. Ends that are not written are not given here.

Experiments:
ICAM-1 = test: Thrombin-induced ICAM-1 upregulation in HUVECs, western blot; assay type: cell-based, human
From the text: FIGS. 33A-33B show thrombin induction of ICAM-1 upregulation in HUVECs is dependent on EphA2. […] Representative data from 3 experiments are shown. FIG. 33B is a graph showing densitometric quantification of the results in […] normalized for fold increase in ICAM-1 expression. Results were reported as fold-increase in ICAM-1 expression relative to unstimulated controls. Data are mean±s.d. of three experiments; * p<0.002.
FIGS. 34A-34B show overexpression of mouse EphA2 rescues thrombin-induced ICAM-1 upregulation in HUVECs with endogenous EphA2 knocked down. […] The cells were treated with human EphA2 specific siRNA as indicated and ICAM-1 upregulation was induced using 1 U/ml thrombin for 6 hours (T). Representative data from 4 experiments are shown. […] “−” and “+” represent without or with thrombin stimulation (1 U/ml, 6 hr). Representative results from two experiments are shown.
Methods: Two validated Stealth siRNA duplexes specific to human EphA2 and a negative control duplexes were purchased from Invitrogen (EphA2 siRNA, catalog number: 12938-022, sequence: 5′-gca agg aag ugg uac ugc ugg acu u-3′ (siRNA #1, SEQ NO ID 33) and control siRNA, catalog number 12935-300, sequence: 5-ggg acc uga ugc aga aca uca uga a-3 (siRNA #2, SEQ NO ID 34)). […] ICAM-1 protein expression were detected by western blots using an anti ICAM-1 antibodies. […]

EphA2 [1] = test: EphA2 tyrosine phosphorylation in HUVECs stimulated with PAR agonistic peptides; assay type: cell-based, human; settings: peptides at 20 μM as stimulants
Experimental: FIG. 37 is an immunoblot showing PAR-1 activates EphA2. Confluent HUVECs were stimulated with PAR agonistic peptides TFLLR-NH2 (PAR-1) (SEQ ID NO: 11), RLLFT-NH2 (negative control for PAR-1) (SEQ ID NO: 12), SLIGKV-NH2 (PAR-2) (SEQ ID NO: 13), GYPGKF-NH2 (PAR-4) (SEQ ID NO: 14), and thrombin. Tyrosine phosphorylation of EphA2 was determined by western blot.
Methods: HUVECs were prepared and stimulated as described in above except that the following peptides at 20 μM were used as stimulants: TFLLR-NH2 (PAR-1; SEQ ID NO: 11), RLLFT-NH2 (negative control for PAR-1; SEQ ID NO: 12), SLIGKV-NH2 (PAR-2; SEQ ID NO: 13), and GYPGKF-NH2 (PAR-4; SEQ ID NO: 14).

[2] = system: Tie-1-induced inflammation in HUVECs; test: p38 inhibition study, real-time PCR in HUVECs infected with Tie-1 adenovirus; assay type: cell-based, human; settings: 48 hours post infection
From the text: FIG. 28 is a graph showing that Tie-1 induced endothelial inflammation is p38 dependent.
Adenovirus construction: For adenovirus production, we chose the AdEasy adenoviral expression system due to its ease of use and ability to generate high titer virus. Coding sequence of mouse Tie-1 excluding the endogenous leader sequence was amplified from cDNA prepared from mouse lung tissue. The following expression cassette was constructed: IgK leader sequence, a Flag epitope tag sequence, and the coding region of mouse Tie-1. This cassette was subcloned into the shuttle vector pAdTrack, which contains two CMV promoters to express the gene of interest and the green fluorescent protein (GFP) independently. After homologous recombination in the E. coli strain BJ5183 (Stratagene), the recombined pAdeasy DNA (PacI-cut) was used to transfect 293A cells (Invitrogen). After several rounds of amplification, the virus was purified using the Ad-Pure Adenoviral Purification Kit (BioVintage) and tittered using 293A as the host. Immediately prior to use, the virus was desalted and buffer-exchanged into endothelial growth medium using a spin column (Pierce). Adenoviral infection: Human umbilical vein endothelial cells (HUVECs) and human aortic endothelial cells (HAECs) were purchased from Cambrex and maintained as recommended by the manufacturer. To overexpress Tie-1, 200,000 endothelial cells were plated in one well of a […]. After overnight incubation, adenovirus harboring the Tie-1 expression cassette was added to the endothelial cells at MOI of 10:1. An “empty virus” expressing only GFP was used as a control. Seventeen hours later, medium was replaced with fresh medium. Cells were maintained and processed at the desired time points for the experiments described below. […] Lysates were immunoprecipitated with an anti-Tiel antibody (Santa Cruz, SC-342). Western blotting with anti phosphotyrosine antibody (4G10, Upstate) was used to determine the phosphorylation status of Tie-1. The membrane was stripped and reblotted with the anti-Tiel antibody. A portion of the lysates was immunoprecipitated with 4G10. Tyrosine phosphorylation of Tie-1 was confirmed by western blotting with the anti-Tiel antibody using these 4G10 immunoprecipitates. Antibody array experiment: HUVECs were infected as described. Forty-eight hours later, supernatants from Tie-1 expressing or GFP expressing cells were collected. After brief centrifugation to remove cell debris, the supernatants were spun through a 0.22-μm cellulose acetate filter (Spin-X, Costar). Cytokine and chemokine contents in the conditioned media were screened using the RayBio Human Inflammation Antibody Array 3.1(RayBiotech). Real-time polymerase chain reactions (PCR)—Total RNAs from endothelial cells were isolated by the RNAeasy Mini Kit (Qiagen) and used as templates in oligo-dT primed reverse transcription using the Superscript III reverse transcriptase (Invitrogen). Real-time PCRs were performed using the QuantiTect Probe PCR Kit (Qiagen) with the 7500 Real Time PCR System (Applied Biosystems). Gene of interest and GAPDH were multiplexed for normalization as described (Dupuy et al., Exp. Cell Res. 185: 363-372., (1989)). The following real time PCR probes were purchased from Applied Biosystems and used in this study: CCL2 5′-[…]-3′(SEQ ID NO: 27); VCAM-1: 5′-[…]-3 (SEQ ID NO: 28)′; ICAM: 5′-[…]-3′(SEQ ID NO: 29); CXCL10: 5′-[…]-3′(SEQ ID NO: 30); E-selectin: 5′-[…]-3′(SEQ ID NO: 31); IL-6: 5′-[…]-3′ (SEQ ID NO: 32). ELISA—HUVECs were infected as described above. Supernatants were collected from Tie-1 expressing or GFP expressing cells 70 hours post infection. The ELISA kit for human IL-6 was purchased from R and D Systems. Western blots—Endothelial cell lysates were prepared in denaturing SDS-PAGE loading buffer, sonicated, heated at 80° C. for 5 mins, and fractionated on SDS-PAGE. […]

[3] = system: stenosis after balloon angioplasty; settings: rabbit, rat, and pig models; cited from earlier work
thrombin = biological target: T1, thrombin (Homo sapiens, UniProt P00734); test: In vitro thrombin activation colorimetric assay, HUVECs expressing Tie-1 endodomain with human plasma and chromogenic thrombin substrate; assay type: cell-based; settings: hirudin 100 U/ml; HUVECs infected with Tie-1 endodomain adenovirus; absorbance at 405 nm
T1 construct: tissue Calbiochem 527420; host or cells: human plasma added to HUVEC monolayers
Experimental: HUVECs were either expressing GFP or Tie-1 endodomain. Whole human plasma supplemented with an excess chromogenic thrombin substrate (sarcosine-Pro-Arg-pNA) (Duncan, Bowie et al., Clin Chem 31: 853-855, (1985)) was added to HUVECs. Cleavage carboxyl-terminal to the arginine residue by thrombin releases […], which can be monitored by absorbance at 405 nm.
Methods: HUVECs were grown to confluency in a 12-well plate. Cells were either uninfected, infected with control GFP adenovirus, or Tie-1 endodomain adenovirus. Next day, medium was changed to fresh full EGM2-MV. 72-hr post infection, cells were washed with EBM2 basal medium (without phenol red), and 0.5 ml of assay medium [EBM2 basal medium (without phenol red)/10% human plasma (Calbiochem 527420)/200 μM chromogenic thrombin substrate (Calbiochem 539518)] was added. Hirudin (Calbiochem 377853, 100 U/ml) was added to one set of cells infected with Tie-1 endodomain. The assay was quenched by the addition of aprotinin (Sigma A1154, 5.6 U/ml). Absorbance at 405 nm was measured using a spectrophotometer and used as an indicator of thrombin activity. […]
Results: We used a colorimetric assay to determine whether expression of Tie-1 endodomain could induce activation of thrombin in vitro. […] Thrombin activation was detected by an increase in absorbance of the cleaved thrombin substrate ([…]) at 405 nm. […]

EphA2 [4] = test: EphA2 tyrosine phosphorylation in HUVECs (immunoprecipitation/4G10 western blot), Src dependence; assay type: cell-based, human
Experimental: Confluent HUVECs were pretreated with either DMSO or PP2 for […] and then stimulated with 1 U/ml thrombin or […] Ephrin A1-FC. EphA2 was immunoprecipitated and tyrosine phosphorylation was detected by immunoblot using an anti-phophotyrosine antibody (top panel). The blot was stripped and reblotted with the EphA2 antibody for loading (bottom panel). Representative data from 3 independent experiments are shown.
Methods: Mouse EphrinA1 in a form of FC fusion was purchased from R and D Systems. Pharmacological agents PP2 was used to examine the role of Src in EphA2 phosphorylation. Confluent HUVECs were pretreated with PP2 (2 μM) or DMSO for 1 hour, followed by a 10-min treatment with sodium orthovandate (1 mM). Cells were then stimulated for 30 mins with either 1 U/ml thrombin or 250 ng/ml […]. HUVECs were lysed in RIPA buffer. Clarified lysates were immunoprecipitated with 2 μg of a polyclonal anti human EphA2 antibody (Santa Cruz) and Protein A/G Plus. Tyrosine phosphorylation and EphA2 were detected using the 4G10 and the EphA2 antibody (Santa Cruz), respectively.

Molecule: soluble EphA2: soluble EphA2 added in excess during thrombin stimulation
- ICAM-1 expression induced by thrombin, block by co-incubation (ICAM-1; soluble EphA2 at concentrations up to 1 μg/ml, thrombin 1 U/ml, 6 hr): failed to block

Molecule: SLIGKV-NH2 [PAR-2 specific agonist]
- EphA2 tyrosine phosphorylation (transactivation) in HUVECs (EphA2 [1]): failed to induce

Molecule: C[S+]([O-])c1ccc(-c2nc(-c3ccncc3)c(-c3ccc(F)cc3)[nH]2)cc1 (centres unmarked) [SB-203580]
- Tie-1-induced CCL2 upregulation [2]: Significant inhibition
- Tie-1-induced ICAM-1 upregulation [2]: Significant inhibition
- Tie-1-induced upregulation of E-selectin mRNA [2]: almost completely blocked
- Tie-1-induced upregulation of IL-6 mRNA [2]: almost completely blocked
- Tie-1-induced upregulation of IP-10 mRNA [2]: almost completely blocked
- Tie-1-induced upregulation of VCAM-1 mRNA [2]: almost completely blocked

Molecule: RLLFT-NH2
- EphA2 tyrosine phosphorylation (transactivation) in HUVECs (EphA2 [1]): failed to induce

- cleavage of the chromogenic thrombin substrate (thrombin): completely blocked
Molecule: hirudin
- development of stenosis after balloon angioplasty [3]: reduces

Molecule: TFLLR-NH2 [PAR-1 specific agonistic peptide]
- EphA2 tyrosine phosphorylation (transactivation) in HUVECs (EphA2 [1]): recapitulated EphA2 transactivation

Molecule: GYPGKF-NH2 [PAR-4 specific agonist]
- EphA2 tyrosine phosphorylation (transactivation) in HUVECs (EphA2 [1]): failed to induce

Molecule: CC(C)(C)n1nc(-c2ccc(Cl)cc2)c2c(N)ncnc21 [PP2]
- tyrosine phosphorylation of EphA2 by EphrinA1, sensitivity to PP2 (EphA2 [4]; PP2 2 μM 1 hour, 250 ng/ml EphrinA1-FC 30 mins): insensitive
- thrombin-induced EphA2 tyrosine phosphorylation (EphA2 [4]; PP2 2 μM 1 hour, 1 U/ml thrombin 30 mins): completely abrogated

B1: EphrinA1-FC: Mouse EphrinA1 in a form of FC fusion, R and D Systems (protein)
chain: DRHIVFWNSSNPKFREEDYTVHVQLNDYLDIICPHYEDDSVADAAMERYTLYMVEHQEYVACQPQSKDQVRWNCNRPSAKHGPEKLSEKFQRFTPFILGKEFKEGHSYYYISKPIYHQESQCLKLKVTVNGKITHNPQAHVNPQEKRLQADDPEVQVLHSIGYS
modifications: left off: a dimerising Fc or GST
notes: Mouse EphrinA1 in a form of FC fusion, R and D Systems
- activation of EphA2 in endothelial cells (EphA2 [4]; FC-fusion protein, 250 ng/ml, 30 mins): induced significant activation
- stimulation of ICAM-1 expression (ICAM-1; EphrinA1-FC up to 10 μg/ml, no thrombin): did not stimulate
